Assay results: patent US20220241314A1, “COMPOSITIONS AND METHODS FOR TREATMENT OF HEPATITIS B VIRUS INFECTION” (priority 2019, published 2022)
{ppp} = triphosphate

B1: poly-U/UC PAMP: ~100 nt PAMP motif from the HCV genome comprising 5′ppp and the poly U/UC region, recognized by RIG-I; formulated in liposome (nucleic acid)
chain: GGCCAUCCUGUUUUUUUCCCUUUUUUUUUUUCUUUUUUUUUUUUUUUUUUUUUUUUUUUUUUUUUUCUCCUUUUUUUUUCCUCUUUUUUUCCUUUUCUUUCCUUU
modifications: RNA, 5' {ppp}, backbone and methylation of C not given here; formulated in liposome
notes: ~100 nt PAMP motif from the HCV genome comprising 5′ppp and the poly U/UC region, recognized by RIG-I; formulated in liposome

Key:
RIG-I = assay: IRF3 activation in RIG-I or MDA5 knockout HepG2-hNTCP cells (immunoblot); format: cell-based, human; conditions: 24 hours
Protocol: FIGS. 6A-6D illustrate that F7 and poly-U/UC PAMP specifically signal IRF3 activation through RIG-I to suppress HBV cccDNA. (6A) F7 was administered for 24 hours to HepG2-hNTCP-NT (expressing non-targeting guide RNA), RKO (RIG-I knockout expressing RIG-I-targeting guide RNA), and MKO (MDA5-knock out expressing MDA5-targeting guide RNA). Cells were harvested and analyzed by immunoblot. The levels of protein expression by p-IRF3 (S386 phosphorylated, active IRF3), IRF3 (total IRF), IFIT1, RIG-I, and MDA5 relative to the expression level of tubulin were determined using respective antibodies. (6B) HepG2-hNTCP-NT, RKO, and MKO cells were treated with 100 ng,/ml of X-RNA or 100 ng/ml or 200 ng/ml of poly-U/UC PAMP for 24 hr. Cells were harvested and analyzed by immunoblot as in (6A). (6C and 6D) Cells were infected with HBV at moi of 1000 Geq/cell. After 24 hour cultures were treated with DMSO (−; negative control), CsA (treatment control), (6C) 10 μM) or F7 or (6D) X RNA or poly-U/UC PAMP. Three days later the cells were harvested, Hirt extracts prepared and subjected to Southern blot analysis using as HBV-DNA probe. The positions of mass markers are indicated. Values beneath each lane show percent cccDNA remaining compared to control treatment.
In order to ascertain whether the activation of IRF3 and suppression of cccDNA in HBV-infected cells by F7 or poly-U/UC PAMP treatment was dependent on RIG-I rather than occurring as an off-target effect of IRF3 agonist treatment, HepG2-hNTCP cells expressing non-targeting guide RNA (HepG2-hNTCP-NT), or guide RNA for knockout (KO) of RIG-I expression (HepG2-hNTCP-RKO) or MDA5 (HepG2-hNTCP-MKO) were produced using CRISPR/Cas9 genome editing technology. […] Next, each cell population was infected with HBV followed by a single treatment with F7 or poly-U/UC PAMP at 1 dpi. Cells were harvested at 3 dpi for Southern blot analysis of cccDNA levels. Parallel cultures of each cell population were treated with DMSO or single dose X-RNA (negative control) or with CsA as a treatment control. […]

HBV cccDNA = assay: Decay kinetics of established cccDNA and HBsAg secretion under treatment from 3 dpi to 20 dpi; format: cell-based, HBV (Genotype D); conditions: HepG2-hNTCP; for production and secretion of HBsAg / cccDNA levels over treatment time course (Southern blot, qPCR): treatment from 3 dpi through 20 dpi; for cccDNA levels over treatment time course (Southern blot, qPCR) / delay before cccDNA starts decreasing (τ) / half-life of cccDNA (t1/2): ETV 500 nM, F7 10 μM, poly-U/UC 100 ng/ml; for delay before cccDNA starts decreasing (τ) / half-life of cccDNA (t1/2): treatment from 3 dpi, model fit of RT-qPCR data, three replicates
Protocol: (5A) HBV infection and treatment schedule. On day 0 HepG2-hNTCP cells were infected with HBV at moi of 1000 Geq/cell, incubated for 24 hr, and media was replaced. On day three the cells were harvested or treated with DMSO, ETV (500 nM), F7 (10 μM), poly-U/UC (100 ng/ml), or with ETC combination with F7 or poly-U/UC, PAMP. Cells were harvested at the indicated points over a 20-day time course. (5B), (5C) DNA was isolated by Hirt extract and subjected to Southern blot analysis using an HBV-specific DNA probe. Percentage values below each lane indicate the relative amount of cccDNA compared to day three control prior to each treatment. The positions of mass markers are indicated. (5D) cccDNA levels were measured by RT-qPCR. Relative cccDNA values to mitochondrial DNA (MT-CO3) are shown. Statistical significance was determined using Student's t test. Data are presented as mean standard deviation (SD), *P<0.01, **P<0.005, ***P<0.001 and ns=non-significant (E) Half-life of cccDNA from RT-qPCR analyses was estimated from the simultaneous fitting of three replicates under each treatment strategy. C(t) is the % values of cccDNA at time ‘t’ post-treatment, C(0) is the % values of cccDNA at the start of the treatment. (5F) HBsAg across the time course for each treatment series. Statistical significance as determined using Student's t test. Data are presented as mean standard deviations (SD), **P<0.005, and ns=non-significant.
ETV is a nucleoside analog that prevents the viral reverse transcription and replication of new synthesized HBV DNAs, thereby preventing the replenishment of cccDNA by de novo formation. ETV was applied to HBV-infected cultures at a 100-fold IC50 (Langley, D. R., et al. (2007). Inhibition of Hepatitis B Virus Polymerase by Entecavir. Journal of virology 81, 3992-4001) thereby allowing for the measurement of cccDNA half-life under conditions in which levels are sustained only from the initial cccDNA pool. Cells were then harvested over a treatment time course, and DNA extracts were analyzed by Southern blot and qPCR assay. […] J Hepatol 69, 1231-1241). […] Enhanced cccDNA decay kinetics by F7 treatment was also confirmed by RT-PCR analysis (FIG. 5D). […] Thus, F7 and poly-U/UC PAMP impart the therapeutic decay of established cccDNA.
Reverse transcription quantitative real time qPCR (RT-qPCR) analysis: Total cellular RNAs were extracted from cells using TRIZOL reagent and the manufacturers protocol (Invitrogen). cDNA was synthesized from the purified RNA by both random and oligo (dT) priming using iScript select cDNA synthesis kit (Biorad, Inc.). For HBV cccDNA expression analysis, total DNA was extracted using the DNeasy kit (QIAGEN). For selective cccDNA PCR analysis, isolated DNAs were treated with 10 Units of T5 exonuclease (NEB) for 30 min in 10 μl of reaction volume in 37° C., followed by heat-inactivation at 95° C. for 5 min and 4-fold dilution with Nuclease-free water. For extra-cellular HBV DNA quantification, an external HBV plasmid standard was used to program the PCR (Ko, C., et al. (2018), supra).

[1] = HepG2-hNTCP-RKO (RIG-I knockout) cells

Row | Molecule | phosphorylated/activated IRF3 and IFIT1 expression (RIG-I; HepG2-hNTCP-NT control and HepG2-hNTCP-MKO (MDA5 knockout) cells) | phosphorylated/activated IRF3 and IFIT1 expression (RIG-I; [1]) | production and secretion of HBsAg (HBV cccDNA) | cccDNA levels over treatment time course (Southern blot, qPCR) (HBV cccDNA) | delay before cccDNA starts decreasing (τ) (HBV cccDNA) | half-life of cccDNA (t1/2) (HBV cccDNA)
1 | O=C(Nc1ccc2nc(NC(=O)c3ccc4ccccc4c3)sc2c1)c1ccccc1 [F7, N-(6-benzamido-1,3-benzothiazol-2-yl)naphthalene-2-carboxamide] | fully respond to F7 | do not respond to treatment | suppressed HBsAg secretion | stimulated the decay of cccDNA | 4.0 days | 209 h
2 | B1 |  | do not respond to treatment | suppressed HBsAg secretion | reduced the cccDNA abundance | 3.8 days | 185 h
